One series can be described thus: in vitro. The note with it: African green monkey, CPE CC50, uninfected Vero E6, 72 h, Cell Titer-Glo. Background: In ATP-based viability assays light output follows the ATP content of the culture.
For series [1], the system named is LC3B. The series can be described thus: LC3B immunostaining autophagy assay, average of four cell lines. The class given is cell-based. The note with it: for EC50: 16 h, read-out: Autophagy EC50.
The conditions of series [2]: cited from earlier work; for Cmax: human plasma, clinically efficacious doses.
The test system of series [3] is Vero-E6 cells. The series can be described thus: Nuclei counts in autophagy assay in Vero-E6 cells. Type of series: cell-based. The settings on record: for cytotoxicity based on nuclei counts: highest concentrations (50 μM for all except for ROC-325 at 25 μM).
Series [4] relates to SARS-CoV-2. The note with it: similar CPE assay with SARS-CoV-2 in Vero-E6 cells; ref [61]; cited from earlier work.
The next series relates to Vero E6 cells. The settings on record: for cell toxicity: Vero E6, up to 30 μM; for cytotoxic: at all concentrations.
Series [5] has as its system Vero-E6 cells. The settings on record: drug-repurposing screen in Vero-E6 cells; ref [61]; cited from earlier work.
A short description of a further series: Cell. Type of series: cell-based.
The subject of series [6] is LC3B. The series can be described thus: LC3B immunostaining autophagy assay in Vero-E6 cells. Type of series: cell-based. The settings on record: ~16 h; for LC3B spot counts: Vero-E6, 50 μM – 0.02 μM.
Series [7] deals with SARS-CoV-2. The class given is cell-based, SARS CoV-2 (USA_WA1/2020). The note with it: Vero-E6, up to 30 μM.
For series [8] the following is noted: in monkey; ref [77]; cited from earlier work.
For series [9], the system named is LC3B. The series can be described thus: LC3B immunostaining autophagy assay in Huh-7.5 cells. Type of series: cell-based, human.
The test system of another series is acidic organelles. The series can be described thus: LysoTracker Deep Red staining assay in Vero-E6 cells. Type of series: cell-based. The settings on record: Vero-E6, cell counts, highest concentration.

The structures appear in SMILES notation. Where two headings read alike, the source gives them in different places.

A word on the CC50: it is the concentration giving 50% cytotoxicity. Usually EC50 stands for the midpoint of the concentration-response curve. As usually defined, the Vd is a proportionality between amount in the body and measured concentration, not a real space. Usually IC50 stands for the concentration at which inhibition is half-maximal. For the compound `CCN(CC)CCCC(C)Nc1ccnc2cc(Cl)ccc12` (centres unmarked) [Chloroquine], in the series “in vitro”, the CC50 was above 30 µM. Besides, in the series on LC3B [1], the EC50 was determined as 3.29 ± 1.86 µM. Also, in series [2] (ref [78], [79]), the Vd is given as 100 L/kg and the bioavailable is 75%. Besides, the “cytotoxicity based on nuclei counts” value with Vero-E6 cells [3] is “not cytotoxic”. Moreover, in the series with SARS-CoV-2 [4], the IC50 was 42 µM. In the series with Vero E6 cells, the “cell toxicity” value is “no associated cell toxicity” and the cytotoxic result is given as “less than 50%”.
As a reminder, the Cmax is the maximum level reached in the sampled fluid or tissue. As to `CN(C)CCCN1c2ccccc2CCc2ccc(Cl)cc21` [Clomipramine], the 50% cytotoxic concentration (CC50) in the series on Vero-E6 cells [5] and in “in vitro” was above 30 µM in each case. The compound further had a cytotoxic concentration (CC50) at 16 h in the series “Cell” above 50 µM. Also, the “increasing LC3B” value with LC3B [1] (all cell lines except for Vero-E6) is recorded as “effective”. For the same compound, the Cmax in series [2] (ref [76]) was 290 nM. Also, the “Vd” value in series [2] (ref [76]) was “high”. In addition, the “cytotoxicity based on nuclei counts” value in the series on Vero-E6 cells [3] was “not cytotoxic”. The cytotoxicity result in the series on Vero E6 cells (at 30.0 μM) is listed as “less than 20%”. Besides, the cytotoxic result with Vero E6 cells is “less than 50%”. The “submaximal increase of LC3B spot counts” value in the series with LC3B [6] (Vero-E6, normalized to DMSO (0%) and CQ (100%)) worked out at 40%. In the series with SARS-CoV-2 [7], the “activity against SARS-CoV-2 CPE” value is reported as “completely prevent SARS-CoV-2 CPE”.
The compound `CCN(CC)CCNc1ccc(CO)c2sc3ccccc3c(=O)c12` [Hycanthone] showed a half-maximal cytotoxic concentration (CC50) at 16 h in the series “Cell” of 11.3 ± 2.73 µM. In addition, the 50% effective concentration (EC50) with LC3B [1] stood at 7.35 ± 4.7 µM. Further, the “absorption” value in [8] is “well-absorbed”. For the same compound, the cells killed result with Vero-E6 cells [3] (at 50 μM) is “approximately 60%”. Further, in the series on Vero E6 cells, the “cell toxicity” value is “cytotoxic at the highest concentrations”. In addition, in the series on Vero E6 cells (at 30 μM), the “reduction of cell viability” value is recorded as around 100%. In addition, in the series with LC3B [6], the “LC3B spot counts” value is recorded as “maximal spot counts”. In addition, in the series with SARS-CoV-2 [7], the “activity against SARS-CoV-2 CPE” value was “moderate levels of activity”.
In the series “in vitro”, `CCN(CCO)CCCC(C)Nc1ccnc2cc(Cl)ccc12` (centres unmarked) [Hydroxychloroquine, hydroxychloroquine] displayed a half-maximal cytotoxic concentration (CC50) above 30 µM. Moreover, the cytotoxic concentration (CC50) at 16 h in “Cell” was above 50 µM. Moreover, the EC50 in the series on LC3B [1] worked out at 6.55 ± 6.67 µM. Besides, in [2] (ref [80]), the maximum concentration (Cmax) was 1500 nM; the T1/2 is around 40 days; the “absorption” value is “rapid and complete absorption”. Also, the “cytotoxicity based on nuclei counts” value with Vero-E6 cells [3] was “not cytotoxic”. The IC50 in the series with SARS-CoV-2 [4] was 9.21 µM. In the series with Vero E6 cells, the “cell toxicity” value is listed as “no associated cell toxicity” and the cytotoxic result is “less than 50%”.
In the case of `OC(c1cc(C(F)(F)F)nc2c(C(F)(F)F)cccc12)C1CCCCN1` (centres unmarked) [Mefloquine], the EC50 in the series on LC3B [9] (Homo sapiens, Huh7.5, read-out: Autophagy EC50) was determined as 7.3 µM. Further, the “LC3B spot counts” value with LC3B [9] (Huh-7.5) was “increased LC3B spot counts even at low concentrations”; in the series on LC3B [6], “ineffective”. Besides, the CC50 with Vero-E6 cells [5] was above 18.5 µM. In the series with acidic organelles, the “toxicity in LysoTracker assay” value was “toxic at the highest concentration”. For the same compound, the CC50 at 16 h in the series “Cell” was 18.4 ± 2.08 µM. The highest concentration (Cmax) in series [2] (ref [81]) was 4500 nM. Further, in the series on Vero-E6 cells [3], the “cytotoxicity based on nuclei counts” value is listed as “completely toxic”. Further, the half-inhibitory concentration (IC50) with SARS-CoV-2 [4] is 7.11 µM. Further, the “cell toxicity” value in the series on Vero E6 cells is “cytotoxic at the highest concentrations”. Further, the cytotoxicity with Vero E6 cells (at 15.0 to 30.0 μM) is 100%. Besides, in the series with SARS-CoV-2 [7], the “activity against SARS-CoV-2 CPE” value is listed as “moderate levels of activity”.
In the case of `CCC(CC)COC(=O)[C@H](C)N[P@](=O)(OC[C@H]1O[C@@](C#N)(c2ccc3c(N)ncnn23)[C@H](O)[C@@H]1O)Oc1ccccc1` [Remdesivir, remdesivir], in the series on Vero E6 cells, the “cell toxicity” value is listed as “no apparent cytotoxicity”.
